{
  "source": "paper PMC8161055",
  "about": "“Synthesis and α-Glucosidase Inhibition Activity of 2-[3-(Benzoyl/4-bromobenzoyl)-4-hydroxy-1,1-dioxido-2H-benzo[e][1,2]thiazin-2-yl]-N-arylacetamides: An In Silico and Biochemical Approach” (Molecules, 2021)",
  "origin": "cited, not measured here",
  "key": {"aldose-reductase": {"molecular_target": "aldose-reductase", "set-up": "method as in PMID 22036211", "settings": "cited from earlier work"}, "SARS-CoV-2": {"test_system": "SARS-CoV-2", "set-up": "method as in PMID 33160024", "settings": "cited from earlier work"}},
  "data": [
    {"smiles": "O=C(O)C=C1CN(Cc2ccc(Br)cc2F)S(=O)(=O)c2ccccc21", "note": "[2-(2-(4-bromo-2-fluorobenzyl)-1,1-dioxido-2H-benzo[e][1,2]thiazin-4(3H)-ylidene)acetic acid]", "values": [
      {"measurement": "IC50", "setting": "aldose-reductase", "result": 110, "unit": "nM"}
    ]},
    {"smiles": "O=C(CN1C(C(=O)Nc2ccc(F)c(Cl)c2)=C(O)c2ccc(F)cc2S1(=O)=O)Nc1ccc(C(F)(F)F)cc1", "note": "[compound 4]", "values": [
      {"measurement": "IC50", "setting": "SARS-CoV-2", "result": 880, "unit": "nM"}
    ]}
  ]
}
